Results on one molecule are retold here after US20250325528A1, “[…] ROLE OF mTORC1 INHIBITION OF NON-TUMOR CELLS” (THE BOARD OF REGENTS OF THE UNIVERSITY OF TEXAS SYSTEM, priority 2024, published 2025).

For one data set, the system named is XP144 TGs. As to the kind of experiment: Tumorgraft growth in different hosts, mixed-model analysis, XP144. The data set is classed as in vivo, mice. As to the method:
(§1) Tumor samples were collected from patients under IRB-approved protocol as previously described. 6-to-8-week-old NOD/SCID mice originally obtained from the UT Southwestern Breeding Core were implanted subcutaneously with patient-derived TGs. Calipers were used to measure tumor dimensions. Volume was calculated by multiplying width, length, and height, thereby minimizing the potential bias of disproportionately weighing one particular dimension (at the cost of overestimating tumor volumes). […] Tumors were measured weekly. As indicated, vehicle-treated tumors and rapamycin-sensitive tumors were harvested around 28 days. […] In accordance with UT Southwestern Institutional Animal Care and Use Committee policies, animals were euthanized once tumor diameters were larger than 2 cm.
(§2) Bar charts and series plots are presented as the mean±standard error of the mean (SEM) from more than three independent experiments. Unless otherwise indicated, the statistical significance was determined by t-test using GraphPad Prism. For each XP line, ANOVA with post-hoc t-tests were used to test for differential (phospho)protein levels between the three arms in the RPPA analysis (vehicle-treated, rapamycin-sensitive, and rapamycin-resistant) with FDR-adjusted P-values. For the mixed model analysis, data were summarized as mean tumor growth per day with 95% confidence intervals, as well as by fold change between groups. A positive fold change indicates increased tumor growth rates in the first group compared to the second. Estimates were obtained from a three-way factorial mixed model analysis for treatment group, mouse type, and day of measurement. Baseline volume was also included as a term in the model to control for differences in starting volumes. An autoregressive (AR-1) covariance structure was used to account for the correlation among repeated measurements for each mouse. ANOVA and mixed model analyses were completed using SAS 9.4. A P-value <0.05 was considered significant.
(§3) XP144, XP164 and XP490 were then implanted into NOD/SCID^mTOR-ST mice.
(§4) The mTOR-ST mutation had the least effect on XP490. […] In Table 4, data are summarized with mean tumor growth rates per day (95% confidence intervals) with fold change between the two groups. A positive fold change indicates increased tumor growth rates in the first group. mTOR-WT, wild type mice; mTORST, heterozygous mTOR-ST mice; mTORST/ST, homozygous mTOR-ST mice. Rapa, rapamycin-treatment; Veh, vehicle-treatment

The test system of a further data set is XP164 TGs. As to the kind of experiment: Tumorgraft growth in different hosts, mixed-model analysis, XP164. The data set is classed as in vivo, mice. The method, then:
as §1, §2, §3, §4

A further data set relates to XP490 TGs. The experiment in a line: Tumorgraft growth in different hosts, mixed-model analysis, XP490. It is filed as in vivo, mice. As to the method:
as §1, with “weekly.” for “weekly. As indicated, vehicle-treated tumors and rapamycin-sensitive tumors were harvested around 28 days.”
as §2, with “For each XP line, ANOVA with post-hoc t-tests were used to test for differential (phospho)protein levels between the three arms in the RPPA analysis (vehicle-treated, rapamycin-sensitive, and rapamycin-resistant) with FDR-adjusted P-values.” left out
as §3
A positive fold change indicates increased tumor growth rates in the first group. mTOR-WT, wild type mice; mTORST, heterozygous mTOR-ST mice; mTORST/ST, homozygous mTOR-ST mice.

The conditions of data set [1]: following temsirolimus administration in patients; cited from earlier work.

SMILES strings stand for the structures.

Consider `CO[C@H]1C[C@@H]2CC[C@@H](C)[C@@](O)(O2)C(=O)C(=O)N2CCCC[C@H]2C(=O)O[C@H]([C@H](C)C[C@@H]2CC[C@@H](O)[C@H](OC)C2)CC(=O)[C@H](C)/C=C(\C)[C@@H](O)[C@@H](OC)C(=O)[C@H](C)C[C@H](C)/C=C/C=C/C=C/1C` [rapamycin], for which the “effect on tumor growth” value is reported as “no significant effect” with XP144 TGs (XP144, NOD/SCID^mTOR-ST mice) and “no significant effect” with XP164 TGs (XP164, NOD/SCID^mTOR-ST mice). Further, the “Mean tumor growth per day (95% CI)” value was 54.6 (36.8, 72.4) vs in the data set on XP144 TGs (XP144, mTOR^ST (heterozygous) mice); 20.4 (10.5, 30.3) vs with XP144 TGs (XP144, mTOR^WT mice, rapamycin 0.5 mg/kg IP every 48 hours); 67.6 (57.2, 78.0) vs with XP164 TGs (XP164, mTOR^ST (heterozygous) mice); 69.5 (58.5, 80.6) vs with XP164 TGs (XP164, mTOR^ST/ST (homozygous) mice); 18.3 (12.6, 24.0) vs in the data set on XP164 TGs (XP164, mTOR^WT mice); 15.0 (11.7, 18.3) vs in the data set on XP490 TGs (XP490, mTOR^ST (heterozygous) mice). Besides, the “Mean tumor growth per day (95% CI)” value in the data set on XP490 TGs (XP490, mTOR^WT mice) is 5.1 (1.1, 9.1) vs. In addition, the “reduction of tumor growth” value in the data set with XP144 TGs (XP144, wild-type mice, vs vehicle) came to 1.5 fold; with XP490 TGs (XP490, wild-type mice, vs vehicle), 11 fold. In addition, in the data set on XP164 TGs (XP164, wild-type mice, vs vehicle), the “delay of tumor growth” value turned out to be 3.7 fold. Further, the “inhibition of tumor growth” value with XP490 TGs (XP490, mTOR-ST homozygous mice) amounted to 2 fold; in the data set with XP490 TGs (XP490, mice with the resistance mutation (heterozygous mTOR-ST)), 6 fold. Moreover, the “reduction of tumor growth inhibition in the resistant host” value in the data set with XP490 TGs (third TG line, resistant host vs wild type) is no more than 5 fold. Besides, in data set [1], the “share of the circulating drug” value is given as 70%.
